Measured values taken from US20190365689A1, “USE OF APE/REF-1 REDOX SPECIFIC INHIBITORS FOR TREATING METASTATIC PROSTATE CANCER” (Indiana University Research and Technology Corporation, priority 2017, published 2019).

Tests used:
[1] = system: PC-3 cells; assay: Methylene blue assay (cell proliferation), PC-3; type: cell-based, human; settings: PC-3, 5 days
Experimental: (§1) The cells were fixed and stained with methylene blue and measured via spectrophotometry. […] EC50s were compared between the drugs: * denotes p<0.05 drug EC50 versus RN7-58, while ¶ denotes p<0.05, APX3330 versus APX2009.
(§2) Methylene Blue Assay (Cell Proliferation)
(§3) Prostate cells were seeded 1,000-5000 per well (cell line/experiment-dependent) and treated with one of APX3330, APX2009 or RN7-58 for 5 days. Media was then removed and cells were fixed with methanol for 10 minutes and stained with 100 μL of 0.05% of methylene blue (LC16920-1 diluted in 1×PBS) for 1 hour. The cells were then washed 3× with water and allowed to air dry overnight. 100 μL of 0.5 N HCl was added to each well to dissolve the methylene blue stain and absorbance (@630) was measured via spectrophotometry. The percent viabilities, normalized to DMSO, were graphed and IC50 concentrations determined.
(§4) To determine if inhibition of APE1/Ref-1's redox function affects cell proliferation, prostatic cell lines were treated with increasing concentrations of redox-specific inhibitors, APX3330 and APX2009, for 5 days and cell number was measured via methylene blue assay (FIG. 2A). […] Growth IC25's and IC50's were determined and arranged in Table 1. Student's t-test was performed to verify statistical IC25 and IC50 differences between APX3330 and APX2009.

[2] = system: C4-2 cells; assay: Methylene blue assay (cell proliferation), C4-2; type: cell-based, human; settings: C4-2, 5 days
Experimental: as §1, §2, §3, §4

[3] = system: LNCaP cells; assay: Methylene blue assay (cell proliferation), LNCaP; type: cell-based, human; settings: 5 days
Experimental: as §1, §2, §3, §4

[4] = system: E7 cells; assay: Methylene blue assay (cell proliferation), E7 non-cancerous prostate epithelial cells; type: cell-based; settings: E7, 5 days
Experimental: as §1, §2, §3, §4

[5] = system: prostatic cell lines; assay: Methylene blue assay (cell proliferation), statements across prostatic cell lines; type: cell-based, human; settings: increasing concentrations, 5 days
Experimental: as §1, §2, §3, §4

[6] = system: survivin; assay: Immunoblotting for survivin protein levels in prostate cancer cells; type: cell-based, human
Experimental: (§5) PC-3 (FIG. 3A), C4-2 (FIG. 3B), LNCaP (FIG. 3C) and E7 (FIG. 3D) cell lines were treated with DMSO, or the growth inhibitory IC25 and IC50 drug concentrations of APX3330 or APX2009 for 48 hours Immunoblotting for survivin, APE1/Ref-1 and Actin as labeled. Representative of three determinations with densitometry quantification, N=3, *-denoting p<0.05 (DMSO vs. IC25 and IC50 Drug Concentrations) within ANOVA.
FIG. 6A: C4-2 cell line was treated with DMSO or APX2009 (14 μM) for 12 hours. RNA was isolated and RT-PCR for survivin was performed with HPRT1 as the reference gene. n=6, *-denoting p<0.05 by unpaired Student's t-test. FIG. 6B: Immunoblot validation of APE1/Ref-1 and p65 Co-Immunoprecipitation (Co-IP) reactions. A 5% sample of the total input of each reaction (Input) and the total IP reaction (IP) were loaded for each reaction. Beads lacking a conjugated antibody (Mock) and generic IgG (IgG) were used as negative controls for each IP experimental reaction, APE1 antibody (top blots) and p65 (bottom blots). FIG. 6C: C4-2 cell line was treated with DMSO, APX2009 (8 and 14 μM) or PDTC (50 and 100 μM) for 72 hours and cells were fixed and methylene blue was performed. n=3, *-denoting p<0.05 (DMSO vs 8 and 14 μM APX2009) and #-denoting p<0.05 (DMSO vs. 50 and 100 μM PDTC) as assessed by ANOVA. […] Data are expressed as Relative Luciferase Units (RLU) normalized to DMSO showing the mean±SEM. n=3, *-denoting p<0.05 (DMSO vs. 14 μM APX2009) and #-denoting p<0.05 (DMSO vs. 100 μM PDTC) within unpaired Students t-test. […] Data presented are representative of three determinations with densitometry quantification, […], *-denoting p<0.05 (DMSO vs. 14 μM APX2009) and #-denoting p<0.05 (DMSO vs. 100 μM) as assessed by unpaired Student's t-test.
Prostate cells were homogenized in lysis buffer containing protease inhibitor (150 mM NaCl, 10 mM tris, 1 mM EDTA, 1 mM benzenesulfonyl fluoride, and 10 μg/ml each of aprotinin, bestatin, L-luecine, and pepstatin A) and 1% Triton X-100. Total protein concentration was determined by BCA (bicinchoninic acid) assay (Pierce, Rockford, Ill.). […]

[7] = system: APE1/Ref-1; assay: Immunoblotting for total APE1/Ref-1 protein levels in prostate cancer cells; type: cell-based, human; settings: growth inhibitory drug concentrations, 48 hours, vs DMSO
Experimental: as §5
Prostate cells were homogenized in lysis buffer containing protease inhibitor (150 mM NaCl, 10 mM tris, 1 mM EDTA, 1 mM benzenesulfonyl fluoride, and 10 μg/ml each of aprotinin, bestatin, L-luecine, and pepstatin A) and 1% Triton X-100. Total protein concentration was determined by BCA (bicinchoninic acid) assay (Pierce, Rockford, Ill.). 10 μg/well of Protein were resolved by electrophoresis in 4-15% gradient polyacrylamide gels (Bio-Rad Laboratories). […] Peroxidase activity was detected via Pico chemiluminescence reagent (Pierce). Photo images were analyzed by densitometry.

[8] = system: C4-2 xenograft tumors; assay: In vivo subcutaneous C4-2 xenograft tumor; parameters: species or system male athymic nude mice
Experimental: C4-2 xenograft tumors were treated with vehicle (Propylene Glycol Kolliphor HS15 Tween 80 (PKT)) or APX2009 (25 mg/kg, IP bid) for 5 days (n=3). Tumors were removed and processed for either immunofluorescence or immunoblotting. FIG. 8A: APE1/Ref-1 and survivin protein levels were measured using immunoblotting as labeled (Left). Data was presented graphically (Right), *-denoting p<0.05 by unpaired Student's t-Test. FIG. 8B: Hematoxylin and Eosin staining and immunofluorescence were performed using APE1/Ref-1 (red) and survivin (green) specific antibodies on vehicle and APX2009 groups. Representative images were taken. White arrows are depicting survivin nuclear staining patterns. […] ImageJ Nucleus Counter was used to quantify number of BrdU+ nuclei and total nuclei per image. n=3, *-denoting p<0.05 by unpaired Student's t-test.
Human prostate specimens or C4-2 xenograft tumors were fixed in 10% formalin, processed routinely, embedded in paraffin, and serially sectioned at 5 μm via microtome. […] The sections were analyzed by immunofluorescence. […]
2×10^6 C4-2 cells were subcutaneously implanted in the hind flank of male athymic nude mice using a 100 μl volume of 50:50 solution of Matrigel: RPMI medium. […] BrdU was injected into the animals 2 hours prior to sacrifice and tumor tissues were analyzed for survivin levels (immunofluorescence and immunoblotting) and BrdU incorporation (immunofluorescence).

[9] = system: NFκB; assay: NFκB-driven luciferase assay in C4-2 cells; type: cell-based, human; settings: C4-2, growth inhibitory IC50 concentrations (14 μM APX2009, 100 μM PDTC), 24 hours
Experimental: FIG. 6A: C4-2 cell line was treated with DMSO or APX2009 (14 μM) for 12 hours. RNA was isolated and RT-PCR for survivin was performed with HPRT1 as the reference gene. n=6, *-denoting p<0.05 by unpaired Student's t-test. FIG. 6B: Immunoblot validation of APE1/Ref-1 and p65 Co-Immunoprecipitation (Co-IP) reactions. A 5% sample of the total input of each reaction (Input) and the total IP reaction (IP) were loaded for each reaction. Beads lacking a conjugated antibody (Mock) and generic IgG (IgG) were used as negative controls for each IP experimental reaction, APE1 antibody (top blots) and p65 (bottom blots). FIG. 6C: C4-2 cell line was treated with DMSO, APX2009 (8 and 14 μM) or PDTC (50 and 100 μM) for 72 hours and cells were fixed and methylene blue was performed. n=3, *-denoting p<0.05 (DMSO vs 8 and 14 μM APX2009) and #-denoting p<0.05 (DMSO vs. 50 and 100 μM PDTC) as assessed by ANOVA. […] Data are expressed as Relative Luciferase Units (RLU) normalized to DMSO showing the mean±SEM. n=3, *-denoting p<0.05 (DMSO vs. 14 μM APX2009) and #-denoting p<0.05 (DMSO vs. 100 μM PDTC) within unpaired Students t-test. […] Data presented are representative of three determinations with densitometry quantification, […], *-denoting p<0.05 (DMSO vs. 14 μM APX2009) and #-denoting p<0.05 (DMSO vs. 100 μM) as assessed by unpaired Student's t-test. […]

[10] = 25% reduction in absorbance vs DMSO, in µM
[11] = 50% reduction in absorbance vs DMSO, read-out: Growth IC50

Molecule | Growth IC25 [1, 10] | IC50 [1, 11] [µM] | Growth IC25 [2, 10] | IC50 [2, 11] [µM] | Growth IC25 [3, 10] | IC50 [3, 11] [µM] | Growth IC25 [4, 10] | IC50 [4, 11] [µM] | Effect on cell proliferation [5] | survivin protein abundance ([6]; growth inhibitory IC50 drug concentrations, within 48 hours, vs DMSO) | survival proteins Bcl-2, Mcl-1 and survivin ([6]; prostate cell lines, immunoblotting) | total APE1/Ref-1 protein levels [7] | Total survivin protein in tumors via immunoblotting ([8]; 25 mg/kg BID IP, 5 days, vs vehicle) | cell proliferation via BrdU staining ([8]; prostatic tumor xenografts) | reduction in survivin protein levels ([6]; C4-2, 14 μM APX2009 / 100 μM PDTC, 48 hours) [%] | decrease in NFκB-driven luciferase activity [9]
3-[(5-(2,3-dimethoxy-6-methyl1,4-benzoquinoyl)]-2-nonyl-2-proprionic acid [APX3330] | 36.0 +/− 1.0 | 54.7 | 57.4 +/− 3.8 | 89.5 | 43.8 +/− 4.2 | 71.9 | 82.7 +/− 8.7 | > 100 | inhibited cell proliferation in a concentration-dependent manner | significant decrease | decrease | not significantly altered | decreased | decreased | – | –
N.S=C(S)N1CCCC1 [PDTC, Ammonium pyrrolidinedithiocarbamate, reference compound] | – | – | – | – | – | – | – | – | – | – | – | – | – | – | 67 | two-fold
